# Reference: patent publication US5710169A, “Therapeutic heterocycles” (Zeneca Limited, priority 1994, dated 1998)
# Structures can show the parent of a compound that is named as a salt.
# Target: T1, NK1 receptor (Oryctolagus cuniculus, UniProt G1SEI7)
# T1 construct: The left and right branches of the pulmonary artery are isolated from the rest of the lung tissue; from tissue; host or cells: pulmonary artery ring segments with intact endothelium, male New Zealand white rabbit (Oryctolagus cuniculus)
# Assay: Rabbit Pulmonary Artery: NK1 in vitro functional assay (Test C)
# Format: cell-based, New Zealand white rabbit
# Settings: agonist ASMSP, read-out: pKB (-log molar KB) in Test C (converted)
# Description: Rabbit Pulmonary Artery: NK1 in vitro functional assay (Test C)
# Male New Zealand white rabbits are killed by lethal injection (Nembutal, 60 mg/kg into a cannulated ear vein). Heparin, 0.0025 ml/kg of a 1000 U/ml solution, is injected into the ear vein prior to nembutal in order to decrease blood coagulation. The left and right branches of the pulmonary artery are isolated from the rest of the lung tissue and cut in half to provide four ring segments from each animal. […] Changes in tension are measured on a Grass polygraph via Grass FT-03 force transducers. […]
# Potencies of the compounds are determined by calculating the apparent dissociation constants (KB) for each concentration tested using the standard equation: […]
# where dose ratio=antilog[(agonist-log molar EC50 without compound)-(agonist-log molar EC50 with compound)]. The KB values are converted to the negative logarithms and expressed as -log molar KB (i.e. pKB). […] The EC50 values are converted to negative logarithms and expressed as -log molar EC50. Maximum relaxation responses to ASMSP are determined by expressing the maximum response to the agonist as a percentage of the relaxation caused by papaverine.
# T1 sequence (G1SEI7 1-407): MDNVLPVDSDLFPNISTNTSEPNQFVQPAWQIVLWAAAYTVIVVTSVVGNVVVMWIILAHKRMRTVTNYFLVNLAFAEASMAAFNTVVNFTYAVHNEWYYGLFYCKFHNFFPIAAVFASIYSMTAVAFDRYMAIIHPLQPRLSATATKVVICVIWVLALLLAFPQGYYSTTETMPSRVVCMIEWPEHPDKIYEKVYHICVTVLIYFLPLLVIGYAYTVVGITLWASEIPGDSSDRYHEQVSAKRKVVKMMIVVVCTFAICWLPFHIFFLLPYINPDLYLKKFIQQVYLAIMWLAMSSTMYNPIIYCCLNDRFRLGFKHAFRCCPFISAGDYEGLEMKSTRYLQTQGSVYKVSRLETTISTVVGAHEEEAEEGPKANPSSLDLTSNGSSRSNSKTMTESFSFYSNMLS
structure (smiles),measurement,value
"COc1ccccc1CC(=O)N(C)CC(c1ccc(Cl)c(Cl)c1)N1CCC(O)(c2ccccc2)CC1 (stereo not shown) [Example 2, N-[2-(3,4-Dichlorophenyl)-2-(4-hydroxy-4-phenylpiperidino)ethyl]-N-methyl-2-methoxyphenylacetamide hydrochloride salt]",Kb,0.631 µM
